A value given as a limit tells only on which side of the number the result lay.

For series [1], the system named is ABC16-Monster S. cerevisiae. Description: microbe, parasite or virus in culture. Type of series: cell-based. The note with it: Saccharomyces cerevisiae.
The subject of a further series is Dd2 parasites. Description: Artemisinin IC50 with proteasome inhibitor co-treatment, 72 h SYBR green assay. Type of series: cell-based. As to conditions: Plasmodium falciparum. Here is the method:
Compound susceptibility was measured using the malaria SYBR green I-based fluorescence assay.[39] Asynchronous P. falciparum parasites (Dd2 strain) were cultured in standard conditions before being plated for the assays. Each compound was tested over 72 h in technical duplicates on a 12-point concentration curve prepared by 3-fold dilution from 6.7 μM to 0.11 nM. At least three independent experiments were carried out for IC50 determination. Artemisinin and chloroquine were used as controls. IC50 values were obtained using normalized fluorescence intensity from SYBR green I and analyzed via nonlinear variable slope four-parameter regression curve-fitting model in Prism 6 (GraphPad Software Inc.).

The next series deals with HepG2 cells. Description: HepG2 cytotoxicity assay. It is filed as cell-based, human. The note with it: D-amino acid at P3; comparator not given.

In the case of `CCCCCC(=O)N[C@H](C(=O)N[C@@H](CCS(C)(=O)=O)C(=O)N[C@@H](CC(C)C)C(=O)[C@@]1(C)CO1)C(C)C` [Carmaphycin B, carmaphycin B], the IC50 in series [1] (GM (parental ABC16-Monster strain), n=4) was 24300 nM; in series [1] (resistant Lineage 1), > 150000 nM; in series [1] (resistant Lineage 2, n=4), 52700 nM; in series [1] (resistant Lineage 3), > 100000 nM.

With `C[C@@H]1CC[C@H]2[C@@H](C)C(=O)O[C@@H]3O[C@@]4(C)CC[C@@H]1[C@]32OO4` [artemisinin], the IC50 came to 11 nM in the series on Dd2 parasites (DD2, Art + 0.5 nM Analog 18, n = 2); 13.5 nM in the series with Dd2 parasites (DD2, Art + 0.5 nM CarB, n = 2); 7.5 nM in the series on Dd2 parasites (DD2, Art + 1.0 nM Analog 18, n = 2); 7 nM in the series with Dd2 parasites (DD2, Art + 1.0 nM CarB, n = 2); 23.5 nM with Dd2 parasites (DD2, Art only, Figure 3B, mean ± SEM, n = 2); 19 nM in the series with Dd2 parasites (DD2, Art only, Figure 3C, mean ± SEM, n = 2). In addition, the IC50 in the series with Dd2 parasites (DD2, artemisinin alone, wild-type artemisinin-sensitive Dd2 parasites, span of both experiments) fell in the range of 19 to 23.5 nM.

Take `CCCCCC(=O)N[C@H](Cc1c[nH]c2ccccc12)C(=O)N[C@@H](CCCC)C(=O)N[C@@H](CC(C)C)C(=O)[C@@]1(C)CO1` [analog 19]: in the series with HepG2 cells, the fold reduced toxicity result was “up to 100 fold”.
